In brackets after ≈: the same amount, converted by molar mass. Structures can show the parent of a compound that is named as a salt. Where two headings read alike, the source gives them in different places.
Assays:
Format in all cases: physicochemical
[1] = Dynamic vapor sorption (DVS) of salts (38.9); conditions: for DVS absorption / moisture: between 0% to 90% RH
Description: DVS was determined using IGA Sorp (Hiden Isochema, UK). The sample was tested at a targeted RH of 0 to 90% full cycle in step mode. The analysis was performed in 10% RH increments.

[2] = Intrinsic dissolution rate in SGF (Example 16); conditions: 37° C., 100 rpm, linear scope within 2 to 120 min
Description: About 100 mg of Free Base Polymorphic Form A or Phosphate Polymorphic Form A was weighed into the intrinsic dissolution apparatus and the sample compressed for 1 minute with a compression force of ˜4 MPa to form a compacted pellet within the stainless-steel die. All loose powder was removed from the surface of the die. The intrinsic dissolution shaft was connected with the stainless-steel die and tightened so only one surface of the pellet was exposed (surface area=0.496 cm^2). The shaft in the spindle was adjusted to ensure the exposed surface of the compacted tablet was ˜3.8 cm from the bottom of the vessel when lowered. The temperature of chamber water was set at 37° C.±0.5° C., the shaft rotation at 100 rpm and the sampling time points at 2, 5, 10, 15, 30, 45, 60, 120 min. SGF was used as dissolution medium (900 mL). At each time point, solution samples were filtered, and the supernatant was analyzed by HPLC-UV.

[3] = Solid stability of free base and salts at 60° C. and 40° C./75% RH (38.3, Example 48); conditions: for chemical stability / physical stability (crystal form by XRPD): 60° C. and 40° C./75% RH for 7 days; for Crystal form day 7: XRPD
Description: Samples of TPA023B Free Base, TPA023B chloride, TPA023B besylate, and TPA023B sulfate were mounted on stability at 60° C. and 40° C./75% RH for up to 7 days. At day-0, day-3 and day-7, the samples were dissolved in diluent to prepare solutions at 0.5 mg/mL for HPLC analysis. Solid samples were analyzed by XRPD to determine the crystal form.
Solid samples were examined using D8 ADVANCE X-ray diffractometer (Bruker). The diffractometer was equipped with LynxEye detector. In XRPD analysis, samples were scanned from 3 to 40° 2θ at a step of 0.02° 2θ. The tube voltage and current were 40 KV and 40 mA, respectively.

[4] = One week accelerated stability testing (Example 3)
Description: The stability of Phosphate Polymorphic Form A and Free Base Polymorphic Form A were evaluated under accelerated conditions.

[5] = Solubility in aqueous buffers, SGF, FaSSIF and FeSSIF (Example 15); conditions: ~20-25° C., ~24 hours; for solubility thermodynamic: 20 °C, thermodynamic from solid, read-out: Measured Conc.; for Measured Conc. (μg/mL): LOQ: 0.1 μg/mL
Description: About 2 mg of test article was added to a 1.5 mL vials which contained ˜1.0 mL of one medium listed in Table 7 and Table 8, which was then sealed. The mixtures were stirred at ˜20-25° C. for ˜24 hours. After that, the mixture was filtered by 0.45 μm filter membrane and then the supernatant was analyzed by HPLC.

[6] = Reactive crystallization with 1.1 eq phosphoric acid (Example 65); conditions: stirred at RT 7 hours
Description: About 25 mg of Free Base Form H was dissolved or suspended in ˜1 mL of a selected solvent. […] The solid was isolated and characterized.
Free Base Form H was dissolved or suspended in ˜1 mL selected solvent. […] Solid was isolated and characterized. No new phosphate Form was obtained in reactive crystallization under this method.

[7] = Slurry of chloride or besylate salt in EA or heptane at 50° C. overnight; conditions: slurried in EA or heptane at 50° C. overnight
[8] = 40° C./75% RH, listed as Free base (Form A)
[9] = 60° C., listed as Free base (Form A)

In the case of `CC(C)(O)c1cnn2c(-c3ccc(F)c(-c4c(F)cccc4C#N)c3)cnc2n1` [Chloride Form B, 2′,6-difluoro-5′-[3-(1-hydroxy-1-methylethyl)-imidazo[1,2-b][1,2,4]triazin-7-yl]biphenyl-2-carbonitrile], the “XRPD after DVS” value [1] is reported as “No XRPD change after DVS” and the “DVS absorption / moisture” value [1] is reported as “DVS: 0-1.4691% absorption”.
With `CC(C)(O)c1cnn2c(-c3ccc(F)c(-c4c(F)cccc4C#N)c3)cnc2n1` [Free Base Polymorphic Form A, 2′,6-difluoro-5′-[3-(1-hydroxy-1-methylethyl)-imidazo[1,2-b][1,2,4]triazin-7-yl]biphenyl-2-carbonitrile] the intrinsic dissolution rate [2] was 5×10^−5 mg·cm^2·min^−1, the “HPLC Purity (%) day 3” value [3, 8] was 98.2% and the “HPLC Purity (%) day 7” value [3, 8] was 98.2%. For the same compound, the chemical stability [3] was “chemically stable”, the “physical stability (crystal form by XRPD)” value (from here on “physical stability”) ([3]; listed as TPA023B free base) was “physically stable” and the “physical stability” value ([3]; listed as TPA-23B free base) was “remained unchanged”. The “HPLC Purity (%) day 3” value [3, 9] was 98.1%, the “HPLC Purity (%) day 7” value [3, 9] was 98.3% and the “HPLC Purity (%) day 0” value ([3]; listed as Free base (Form A)) was 98.1%. For the same compound, the “Assay (%)” value ([4]; 40° C./75% RH (open), 1 week) was 102.35%, the “Purity (%)” value ([4]; 40° C./75% RH (open), 1 week) was 98.64% and the “Assay (%)” value ([4]; 80° C. (open), 1 week) was 101.60%. For the same compound, the “Purity (%)” value ([4]; 80° C. (open), 1 week) was 98.62%, the “Purity (%)” value ([4]; Initial) was 98.72% and the “Assay (%)” value ([4]; Initial, assay criterion 95%-105%) was 105.51%. The “Assay (%)” value ([4]; Light, ~50 h) was 104.28%, the “Purity (%)” value ([4]; Light, ~50 h) was 98.60% and the “Measured Conc.” value ([5]; Purified water) was 0.14 µg/mL. For the same compound, the solubility thermodynamic ([5]; fasted-state simulated intestinal fluid (FaSSIF), fassif, FaSSIF) was 2.11 µg/mL (≈ 5.39 µM), the solubility thermodynamic ([5]; fed-state simulated intestinal fluid (FeSSIF), fessif, FeSSIF) was 9.63 µg/mL (≈ 24.6 µM) and the “Measured Conc.” value ([5]; pH 1.2 Hydrochloric Acid Buffer (50 mM)) was 9.77 µg/mL. The “Measured Conc. (μg/mL)” value ([5]; pH 3.0 citrate buffer (100 mM)) was “<LOQ”, the “Measured Conc. (μg/mL)” value ([5]; pH 4.5 citrate buffer (100 mM)) was “<LOQ” and the “Measured Conc. (μg/mL)” value ([5]; pH 7.4 PBS (50 mM)) was “<LOQ”. The “Measured Conc. (μg/mL)” value ([5]; pH 9.0 USP Buffer (50 mM)) was “<LOQ” and the solubility thermodynamic ([5]; simulated gastric fluid (SGF), simulated gastric fluid, SGF) was 1.38 µg/mL (≈ 3.53 µM).
In the case of `CC(C)(O)c1cnn2c(-c3ccc(F)c(-c4c(F)cccc4C#N)c3)cnc2n1` [Free Base Polymorphic Form H, 2′,6-difluoro-5′-[3-(1-hydroxy-1-methylethyl)-imidazo[1,2-b][1,2,4]triazin-7-yl]biphenyl-2-carbonitrile], the “Result (solid form obtained)” value ([6]; solvent 1,4-dioxane) is reported as “Phosphate Form A”, the “Result (solid form obtained)” value ([6]; solvent ACN) is reported as “Phosphate Form A” and the “Result (solid form obtained)” value ([6]; solvent Acetone) is reported as “Phosphate Form A”. For the same compound, the “Result (solid form obtained)” value ([6]; solvent BAC) was “Phosphate Form A”, the “Result (solid form obtained)” value ([6]; solvent Cyclohexanone) was “Phosphate Form A” and the “Result (solid form obtained)” value ([6]; solvent DCM) was “Phosphate Form A”. For the same compound, the “Result (solid form obtained)” value ([6]; solvent DEE) was “Phosphate Form A”, the “Result (solid form obtained)” value ([6]; solvent EA) was “Phosphate Form A” and the “Result (solid form obtained)” value ([6]; solvent IPAC) was “Phosphate Form A”. The “Result (solid form obtained)” value ([6]; solvent MEK) was “Phosphate Form A”, the “Result (solid form obtained)” value ([6]; solvent MTBE) was “Phosphate Form A” and the “Result (solid form obtained)” value ([6]; solvent N-pentane) was “Phosphate Form A”. For the same compound, the “Result (solid form obtained)” value ([6]; solvent PPG 2000) was “Phosphate Form A”, the “Result (solid form obtained)” value ([6]; solvent Trichloromethane) was “Phosphate Form A” and the “Result (solid form obtained)” value ([6]; solvent polysorbate 80) was “Phosphate Form A”.
With `CC(C)(O)c1cnn2c(-c3ccc(F)c(-c4c(F)cccc4C#N)c3)cnc2n1` [TPA023B Besylate (Form A), 2′,6-difluoro-5′-[3-(1-hydroxy-1-methylethyl)-imidazo[1,2-b][1,2,4]triazin-7-yl]biphenyl-2-carbonitrile] the “crystal form after slurry” value [7] was “remained unchanged”, the “HPLC Purity (%) day 3” value ([3]; 40° C./75% RH) was 98.8% and the “HPLC Purity (%) day 7” value ([3]; 40° C./75% RH) was 98.8%. For the same compound, the “Crystal form day 7” value ([3]; 40° C./75% RH) was “three extra peaks”, the “Crystal form day 7” value ([3]; 40° C./75% RH, listed as TPA-23B besylate) was “three extra peaks” and the chemical stability [3] was “chemically stable”. The “HPLC Purity (%) day 3” value ([3]; 60° C.) was 98.8%, the “HPLC Purity (%) day 7” value ([3]; 60° C.) was 98.8% and the “HPLC Purity (%) day 0” value [3] was 98.8%. The “XRPD after DVS” value [1] was “No XRPD change after” and the “DVS absorption / moisture” value [1] was “DVS: 0-1.047% moisture”.
In the case of `CC(C)(O)c1cnn2c(-c3ccc(F)c(-c4c(F)cccc4C#N)c3)cnc2n1` [TPA023B Sulfate (Form A), 2′,6-difluoro-5′-[3-(1-hydroxy-1-methylethyl)-imidazo[1,2-b][1,2,4]triazin-7-yl]biphenyl-2-carbonitrile], the “HPLC Purity (%) day 3” value ([3]; 40° C./75% RH) is reported as 98.8%, the “HPLC Purity (%) day 7” value ([3]; 40° C./75% RH) is reported as 98.8% and the chemical stability [3] is reported as “chemically stable”. The “physical stability” value [3] was “physically stable”, the “physical stability” value ([3]; listed as TPA-23B sulfate) was “remained unchanged” and the “HPLC Purity (%) day 3” value ([3]; 60° C.) was 98.8%. The “HPLC Purity (%) day 7” value ([3]; 60° C.) was 98.8%, the “HPLC Purity (%) day 0” value [3] was 98.8% and the “XRPD after DVS” value [1] was “No XRPD change after”. For the same compound, the hygroscopicity [1] was “light hygroscopicity” and the “DVS absorption / moisture” value [1] was “DVS: 0-1.206% moisture”.
In the case of `CC(C)(O)c1cnn2c(-c3ccc(F)c(-c4c(F)cccc4C#N)c3)cnc2n1` [TPA023B chloride (Form C), 2′,6-difluoro-5′-[3-(1-hydroxy-1-methylethyl)-imidazo[1,2-b][1,2,4]triazin-7-yl]biphenyl-2-carbonitrile], the “crystal form after slurry” value [7] is reported as “remained unchanged”, the “HPLC Purity (%) day 3” value ([3]; 40° C./75% RH) is reported as 98.8% and the “HPLC Purity (%) day 7” value ([3]; 40° C./75% RH) is reported as 98.7%. For the same compound, the chemical stability [3] was “chemically stable”, the “physical stability” value [3] was “physically stable” and the “physical stability” value ([3]; listed as TPA-23B chloride) was “remained unchanged”. For the same compound, the “HPLC Purity (%) day 3” value ([3]; 60° C.) was 98.4%, the “HPLC Purity (%) day 7” value ([3]; 60° C.) was 98.4% and the “HPLC Purity (%) day 0” value [3] was 97.6%.
